# Test results from patent US20180185374A1, “INHIBITORS OF MTOR KINASE AS ANTI-VIRAL AGENTS” (THE TRUSTEES OF PRINCETON UNIVERSITY, priority 2009, published 2018).
# Entries after “also recorded” stand apart in the source; their conditions may differ.
# Experiments:
# HCMV strain AD169 = test: HCMV AD169 replication in human fibroblasts treated with 4-PBA, TCID50; type: cell-based, human cytomegalovirus; settings: 0.1 pfu/cell; day 8 post infection; range of 4-PBA doses
# Excerpt: FIG. 10. 4-PBA inhibits HCMV replication in a dose-dependent manner. […] The medium with drug was replaced every other day. Cell-free and cell-associated virus was collected on day 8 post infection and titered by the TCID50 method. Data represent the log mean titer of duplicate samples.
# To explore the hypothesis that HCMV might actually require the UPR to occur in order to maintain cellular homeostasis despite high levels of expression of viral glycoproteins, HCMV-infected human fibroblasts (HFFs) were treated with an inhibitor of the UPR, the chemical chaperone sodium 4-phenylbutyrate (4-PBA).
# human fibroblasts = test: trypan blue exclusion viability of confluent human fibroblasts treated with 4-PBA; type: cell-based; settings: 8 days; up to highest dose tested
# Method: (§1) FIG. 11. 4-PBA is not toxic to uninfected or infected confluent human fibroblasts. (A) Fibroblasts were maintained in medium containing the indicated concentrations of 4-PBA for 8 days. The medium was replaced every other day throughout the time course. At the end of the treatment period, cell viability was measured by the trypan blue exclusion assay. Date points represent the mean of duplicate wells. (B) Fibroblasts were infected with HCMV at a multiplicity of 0.1 pfu/cell. Cells were fed every other day with fresh medium containing the indicated concentration of 4-PBA. At eight days post infection, cells were washed once with media, and then media lacking drug was added. Eight days later (16 days post infection) cell free virus in the supernatant was quantitated by the TCID50 method. Date points represent the mean of duplicate wells.
# (§2) Two experiments were performed to rule out the possibility that 4-PBA is simply toxic to the cells and inhibits HCMV indirectly by reducing cell viability (FIG. 11). In the first experiment (FIG. 11A) an assay for cell viability was performed on confluent human fibroblasts treated for eight days with different concentrations of the drug. […] Then the drug was removed and the yield of virus was determined 8 days later.
# HCMV [1] = test: 4-PBA reversibility: HCMV yield 8 days after drug removal, TCID50; type: cell-based, human cytomegalovirus; settings: all doses tested; 8-day treatment; 16 days post infection
# Method: as §1, §2
# mTOR = mTOR (Homo sapiens, UniProt P42345); settings: read-out: IC50 of selective mTOR inhibitor; cited from earlier work
# PI3Ks = settings: cited from earlier work
# [2] = system: panel of 140 protein kinases; settings: read-out: IC50 against panel of 140 protein kinases; cited from earlier work
# HCMV [3] = test: HCMV multistep growth in serum-starved human fibroblasts, cell-free virus by TCID50; type: cell-based, human cytomegalovirus; settings: day 10; 0.05 PFU/cell; rapamycin 20 nM, Torin1 250 nM
# MCMV = MCMV replication in MEFs, cell-free virus by TCID50; type: cell-based, murine cytomegalovirus; settings: wild-type MEFs; 0.05 PFU/cell; rapamycin 20 nM, Torin1 250 nM
smiles,measurement,setting,value
"O=C([O-])CCCc1ccccc1.[Na+] [4-PBA, sodium 4-phenylbutyrate]",HCMV replication / virus production,HCMV strain AD169,effectively inhibited virus replication in a dose-dependent manner; also recorded: inhibited virus production in a dose-dependent manner
same,"cellular viability / toxicity, trypan blue exclusion",human fibroblasts,no effect on cellular viability; also recorded: not toxic
same,virus yield 8 days after drug removal,HCMV [1],recovered and produced a normal yield
COC(=O)Nc1ccc(-c2nc(N3CCOCC3)c3cnn(C4CCN(C(=O)OC)CC4)c3n2)cc1 [WYE354],IC50,mTOR,5 nM
CNC(=O)Nc1ccc(-c2nc(N3CC4CCC(C3)O4)c3cnn(C4CCC5(CC4)OCCO5)c3n2)cc1 [WYE-125132],IC50,mTOR,0.19 nM
same,fold selective versus PI3Ks (PI3K),PI3Ks,"> 5,000 fold"
O=C(Nc1ccc(-c2nc(N3CC4CCC(C3)O4)c3sccc3n2)cc1)NC1CC1 [Wyeth-BMCL-200910075-9b],IC50,mTOR,0.7 nM
same,fold selective versus PI3Ks (PI3K),PI3Ks,"> 1,000 fold"
Cc1c(C(=O)N2CCOc3ccc(-c4ccc(N)nc4)cc3C2)ccc(S(C)(=O)=O)c1F [XL388],IC50,[2],> 3000 nM
CO[C@H]1C[C@@H]2CC[C@@H](C)[C@@](O)(O2)C(=O)C(=O)N2CCCC[C@H]2C(=O)O[C@H]([C@H](C)C[C@@H]2CC[C@@H](O)[C@H](OC)C2)CC(=O)[C@H](C)/C=C(\C)[C@@H](O)[C@@H](OC)C(=O)[C@H](C)C[C@H](C)/C=C/C=C/C=C/1C [rapamycin],reduction of HCMV yield,HCMV [3],~8 fold
same,MCMV replication,MCMV,no inhibitory effect
